This note sets out measurements from ChEMBL document CHEMBL1275444, “Fitness trade-offs in blaTEM evolution” (2008).

Assay [1] has as its system Escherichia coli. As to the kind of experiment: Antibacterial activity against Escherichia coli TP1 harboring pBR322 carrying TEM-12 by broth microdilution method. Format: functional. A general note: Dilution methods test growth across graded concentrations, often in twofold steps.
The test system of assay [2] is Escherichia coli. Description: Antibacterial activity against Escherichia coli TP1 harboring pBR322 carrying TEM-1 assessed as bacterial density at 512 ug/ml after 18 hrs. Format: functional.
The subject of assay [3] is Escherichia coli. As to the kind of experiment: Antibacterial activity against Escherichia coli TP1 harboring pBR322 carrying TEM-10 assessed as bacterial density at 512 ug/ml after 18 hrs. Format: functional.
Assay [4] concerns Escherichia coli. Description: Antibacterial activity against Escherichia coli TP1 harboring pBR322 carrying TEM-12 assessed as bacterial density at 512 ug/ml after 18 hrs. Format: functional.
Assay [5] has as its system Escherichia coli. As to the kind of experiment: Antibacterial activity against Escherichia coli TP1 harboring pBR322 carrying TEM-1 assessed as bacterial density at 1024 ug/ml after 18 hrs. Format: functional.
Assay [6] relates to Escherichia coli. Description: Antibacterial activity against Escherichia coli TP1 harboring pBR322 carrying TEM-10 assessed as bacterial density at 1024 ug/ml after 18 hrs. Format: functional.
The test system of assay [7] is Escherichia coli. As to the kind of experiment: Antibacterial activity against Escherichia coli TP1 harboring pBR322 carrying TEM-12 assessed as bacterial density at 1024 ug/ml after 18 hrs. Format: functional.
For assay [8], the system named is Escherichia coli. Description: Antibacterial activity against Escherichia coli TP1 harboring pBR322 carrying TEM-1 assessed as bacterial density at 2048 ug/ml after 18 hrs relative to control. Format: functional.
The subject of assay [9] is Escherichia coli. As to the kind of experiment: Antibacterial activity against Escherichia coli TP1 harboring pBR322 carrying TEM-10 assessed as bacterial density at 2048 ug/ml after 18 hrs relative to control. Format: functional.
Assay [10] relates to Escherichia coli. As to the kind of experiment: Antibacterial activity against Escherichia coli TP1 harboring pBR322 carrying TEM-12 assessed as bacterial density at 2048 ug/ml after 18 hrs relative to control. Format: functional.
Assay [11] concerns Escherichia coli. As to the kind of experiment: Antibacterial activity against Escherichia coli TP1 harboring pBR322 carrying TEM-1 assessed as inhibition of bacterial growth at 4096 ug/ml after 18 hrs. To be noted: TP1, 18 h. Format: functional.
Assay [12] has as its system Escherichia coli. Description: Antibacterial activity against Escherichia coli TP1 harboring pBR322 carrying TEM-10 assessed as inhibition of bacterial growth at 4096 ug/ml after 18 hrs. Format: functional. To be noted: TP1, 18 h.
Assay [13] has as its system Escherichia coli. As to the kind of experiment: Antibacterial activity against Escherichia coli TP1 harboring pBR322 carrying TEM-12 assessed as inhibition of bacterial growth at 4096 ug/ml after 18 hrs. Format: functional. To be noted: TP1, 18 h.
The subject of assay [14] is Escherichia coli. Description: Antibacterial activity against Escherichia coli TP1 by broth microdilution method.
Assay [15] has as its system Escherichia coli. As to the kind of experiment: Antibacterial activity against Escherichia coli TP1 harboring pBR322 carrying TEM-1 by broth microdilution method. Format: functional.
Assay [16] has as its system Escherichia coli. Description: Antibacterial activity against Escherichia coli TP1 harboring pBR322 carrying TEM-10 by broth microdilution method. Format: functional.
Assay [17] concerns Escherichia coli. As to the kind of experiment: Antibacterial activity against Escherichia coli TP1 harboring pBR322 carrying TEM-1 assessed as inhibition of bacterial growth at 2 ug/ml after 18 hrs. Format: functional. To be noted: TP1, 18 h.
The subject of assay [18] is Escherichia coli. As to the kind of experiment: Antibacterial activity against Escherichia coli TP1 harboring pBR322 carrying TEM-10 assessed as bacterial density up to 64 ug/ml after 18 hrs. Format: functional.
Assay [19] has as its system Escherichia coli. Description: Antibacterial activity against Escherichia coli TP1 harboring pBR322 carrying TEM-10 assessed as inhibition of bacterial growth at 256 ug/ml after 18 hrs. Format: functional. Particulars: TP1, 18 h.
Assay [20] concerns Escherichia coli. As to the kind of experiment: Antibacterial activity against Escherichia coli TP1 harboring pBR322 carrying TEM-12 assessed as inhibition of bacterial growth at 64 ug/ml after 18 hrs. To be noted: TP1, 18 h. Format: functional.
The test system of assay [21] is Escherichia coli. Description: Antibacterial activity against Escherichia coli TP1 harboring pBR322 carrying TEM-12 assessed as inhibition of bacterial growth at 256 ug/ml after 18 hrs. Format: functional. To be noted: TP1, 18 h.

Converted amounts (≈) assume the structure as drawn.

Take `CC1(C)S[C@@H]2[C@H](NC(=O)[C@H](N)c3ccccc3)C(=O)N2[C@H]1C(=O)O` [AMPICILLIN]: the MIC (as a rule, the smallest concentration in the dilution series that meets the test's criterion for growth inhibition) came to 16400 µg/mL (≈ 46900 µM) with Escherichia coli [1], 32 µg/mL (≈ 91.6 µM) in the assay on Escherichia coli [14], 16400 µg/mL (≈ 46900 µM) with Escherichia coli [15] and 16.4 mg/mL (≈ 46900 µM) against Escherichia coli [16]. The Activity with Escherichia coli [2], with Escherichia coli [3], with Escherichia coli [4], with Escherichia coli [5], in the assay with Escherichia coli [6] and in the assay with Escherichia coli [7] was 5% in each case. Moreover, the Activity with Escherichia coli [8] was 95%; with Escherichia coli [9], 42%; in the assay with Escherichia coli [10], 72%. In addition, the inhibition (commonly the drop in the measured response relative to a control, in per cent) at 4096 µg/mL stood at 25% with Escherichia coli [11], 78% in the assay with Escherichia coli [12] and 36% in the assay on Escherichia coli [13].

Take `CC(C)(O/N=C(\C(=O)N[C@@H]1C(=O)N2C(C(=O)[O-])=C(C[n+]3ccccc3)CS[C@H]12)c1csc(N)n1)C(=O)O` [CEFTAZIDIME]: the MIC in the assay on Escherichia coli [1] is 512 µg/mL (≈ 937 µM); in the assay with Escherichia coli [14], 1 µg/mL (≈ 1.83 µM); against Escherichia coli [15], 8 µg/mL (≈ 14.6 µM); against Escherichia coli [16], > 1.02 mg/mL. For the same molecule, in the assay on Escherichia coli [17], the inhibition at 2 µg/mL was 99%. For the same molecule, the Activity in the assay on Escherichia coli [18] was found to be 100%. In addition, the values for the inhibition at 256 µg/mL in the assay with Escherichia coli [19] and in the assay with Escherichia coli [21] were 17% and 88%, respectively. Also, in the assay on Escherichia coli [20], the inhibition at 64 µg/mL stood at 64%.
